Blank lines part the entries; values can stand above or below the molecule they belong to.
Tests used:
[1] = test system: PPO4 (FaPPO 4); experiment: spectrophotometry, […] nm; type: biochemical, Fragaria vesca; settings: 50 mM Tris-HCl pH 7, 1 mM SDS, 25 °C
[2] = test system: T1, PPO1 (FaPPO 1); experiment: spectrophotometry, […] nm; type: biochemical; settings: 50 mM Tris-HCl pH 7, 0.7 mM SDS, 25 °C
T1 construct: latent PPO, transit peptide removed, C-terminal shielding domain kept, N-terminal 6xHis tag, pET28, E. coli BL21(DE3)

[3] = test system: T2, PPO2 (FaPPO 2); experiment: spectrophotometry, […] nm; type: biochemical, Fragaria vesca; settings: 50 mM Tris-HCl pH 7, 0.7 mM SDS, 25 °C
T2 construct: latent PPO, transit peptide removed, C-terminal shielding domain kept, N-terminal 6xHis tag, non-codon-optimized cDNA, pET28, E. coli BL21(DE3)

[4] = test system: T2, PPO2 (FaPPO 2); experiment: spectrophotometry, […] nm, Hill fit; type: biochemical, Fragaria vesca; settings: 50 mM Tris-HCl pH 7, 0.7 mM SDS, 25 °C, cooperative
[5] = test system: T1, PPO1 (FaPPO 1); experiment: spectrophotometry, […] nm, Hill fit; type: biochemical; settings: 50 mM Tris-HCl pH 7, 0.7 mM SDS, 25 °C, cooperative
[6] = test system: T2, PPO2 (FaPPO 2); experiment: spectrophotometry, […] nm; type: biochemical, Fragaria vesca; settings: 50 mM Tris-HCl pH 7, 0.7 mM SDS, 25 °C; remark: listed apart in the source
[7] = test system: T1, PPO1 (FaPPO 1); experiment: spectrophotometry, […] nm; type: biochemical; settings: 50 mM Tris-HCl pH 7, 0.7 mM SDS, 25 °C; remark: listed apart in the source
[8] = test system: PPO4 (FaPPO 4); experiment: spectrophotometry, […] nm; type: biochemical, Fragaria vesca; settings: 50 mM Tris-HCl pH 7, 1 mM SDS, 25 °C; remark: listed apart in the source
[9] = test system: T1, PPO1 (FaPPO 1); experiment: spectrophotometry, […] nm; type: biochemical; settings: 50 mM Tris-HCl pH 7, 0.7 mM SDS, 25 °C; remark: listed apart in the source
[10] = test system: PPO4 (FaPPO 4); experiment: spectrophotometry, […] nm; type: biochemical, Fragaria vesca; settings: 50 mM Tris-HCl pH 7, 1 mM SDS, 25 °C; remark: listed apart in the source
[11] = test system: T2, PPO2 (FaPPO 2); experiment: spectrophotometry, […] nm; type: biochemical, Fragaria vesca; settings: 50 mM Tris-HCl pH 7, 0.7 mM SDS, 25 °C; remark: listed apart in the source
[12] = test system: T2, PPO2 (FaPPO 2); experiment: spectrophotometry, […] nm; type: biochemical, Fragaria vesca; settings: 50 mM Tris-HCl pH 7, 0.7 mM SDS, 25 °C; remark: listed apart in the source
[13] = test system: PPO4 (FaPPO 4); experiment: spectrophotometry, […] nm; type: biochemical, Fragaria vesca; settings: 50 mM Tris-HCl pH 7, 1 mM SDS, 25 °C; remark: listed apart in the source
[14] = test system: T1, PPO1 (FaPPO 1); experiment: spectrophotometry, […] nm; type: biochemical; settings: 50 mM Tris-HCl pH 7, 0.7 mM SDS, 25 °C; remark: listed apart in the source
[15] = test system: T2, PPO2 (FaPPO 2); experiment: spectrophotometry, […] nm; type: biochemical, Fragaria vesca; settings: 50 mM Tris-HCl pH 7, 0.7 mM SDS, 25 °C; remark: listed apart in the source
[16] = test system: T1, PPO1 (FaPPO 1); experiment: spectrophotometry, […] nm; type: biochemical; settings: 50 mM Tris-HCl pH 7, 0.7 mM SDS, 25 °C; remark: listed apart in the source
[17] = test system: PPO4 (FaPPO 4); experiment: spectrophotometry, […] nm; type: biochemical, Fragaria vesca; settings: 50 mM Tris-HCl pH 7, 1 mM SDS, 25 °C; remark: listed apart in the source

Km [1]: 1.3 ± 0.2 mM
Km [2]: 2.7 ± 0.4 mM
Km [3]: 1.3 ± 0.2 mM
Compound: O=C(/C=C/c1ccc(O)c(O)c1)O[C@@H]1C[C@](O)(C(=O)O)C[C@@H](O)[C@H]1O [Chlorogenic acid]

Km [4]: 600 ± 400 µM
Km [5]: 82 ± 4 µM
Compound: O=C(CCc1ccc(O)cc1)c1c(O)cc(O)cc1O [Phloretin]

Km [6]: 190 ± 40 µM
Km [7]: 120 ± 30 µM
Km [8]: 870 ± 80 µM
Compound: Oc1cc(O)c2c(c1)O[C@H](c1ccc(O)c(O)c1)[C@@H](O)C2 [Catechin]

Km [9]: 2 ± 0.4 mM
Km [10]: 3.2 ± 1.6 mM
Km [11]: 5.7 ± 1.9 mM
Compound: N[C@@H](Cc1ccc(O)c(O)c1)C(=O)O [L-DOPA]

The next lines start with the molecule.

Compound: Oc1ccccc1O [Catechol]
Km [1]: 39 ± 12 mM
Km [2]: 27 ± 2 mM
Km [3]: 7.5 ± 0.6 mM

Compound: NCCc1ccc(O)c(O)c1 [Dopamine]
Km [12]: 950 ± 120 µM
Km [13]: 990 ± 110 µM
Km [14]: 600 ± 100 µM

Compound: NCCc1ccc(O)cc1 [Tyramine]
Km [15]: 600 ± 100 µM
Km [16]: 500 ± 100 µM
Km [17]: 1.3 ± 0.1 mM

— paper PMC12191596, “Gene Expression and Enzyme Kinetics of Polyphenol Oxidases in Strawberry and Their Possible Involvement in Enzymatic Browning Reactions in Strawberry Nectar” (Foods, 2025)
